# Data published in patent publication US12612424B2, “HPK1 inhibitors and uses thereof” (Regor Pharmaceuticals, Inc., priority 2019, dated 2026).
# Test system: Human Pan T Cell (IL-2 release)
# Experiment: IL2 released by human pan T cell upon anti-CD3/anti-CD28 stimulation (ELISA)
# Format: cell-based
# Settings: human pan T cells; for EC (2-fold response) / maximal fold induction: 48 h; for EC (2-fold response) / EC2x (nM): concentration of compound that gives 200% IL-2 response (2 folds) over DMSO control; for maximal fold induction / IL-2 Max Fold Response: response of IL-2 over DMSO control, anti-CD3/anti-CD28, 48 hours, ELISA; for maximal fold induction: read-out: IL-2 Max Fold Response; for EC50: IL-2 response, calculated with GraphPad Prism
# From the text: For example, Example 5 describes such a functional assay for determining the effect of an HPK1 inhibitor on IL-2 & IFN-γ release upon stimulation of Pan T cells. The secreted IL-2 & IFN-γ can be measured/quantified by standard ELISA assay. Briefly, pan T cells can be isolated from peripheral blood (PB) mononuclear cells (MNCs), or PBMC, using commercially available kits, such as MACS (Miltenyl Biotec) Pan T isolation kit (Cat. No. 130-096-535). Primary human pan-T cells include CD4 and CD8 T cells as well as some gamma/delta T cell subsets. The pan-T cells can be isolated using the negative immunomagnetic separation technique without the use of columns.
# Isolated pan-T cells can be dispensed into 96-well plates at 100,000 cells/well, and stimulated with immobilized anti-CD3 antibody and soluable anti-CD28 antibody, or PMA/Ionomycin as the positive control (or culture media as the negative control). Different concentrations of test compounds can be added to the cells to assess the compound effect on cytokine secretion following TCR-stimulation/CD28 co-stimulation. Stimulated cells are incubated for 2 more days, before the supernatant (containing secreted cytokines by pan-T cells) is collected from each well for ELISA assay and quantitation of IL-2 and IFN-γ.
# Biology Example 8 Compound Efficacy Study on IL2 & IFN-γ Released by Human Pan T Cell
# This example is an assay method that can be used to determine compound effects on IL2 & IFN-γ release using pan T cells and ELISA assay format.
# 3. Procedures Procedures for Pan T isolation and Reagent preparation (Day 0): 1. Cell Growth Medium: • RPMI1640: ATCC, Cat #30-2001 • 10% FBS: Gibco, Cat #10099141 • 1% Pen-Strep: Gibco, Cat #15140122 • 1% Non-essential amino: Gibco, Cat #11140050 • Beta-Mercaptoethanol: Gibco, Cat #21985023 2. Pan T Isolation Buffer Preparation:
# Prepare a solution containing phosphate-buffered saline (PBS), pH 7.2, 0.5% bovine serum albumin (BSA), and 2 mM EDTA by diluting MACS® BSA Stock Solution (#130-091-376) 20 times with autoMACS® Rinsing Solution. Keep buffer at 4° C. Degas buffer before use, as air bubbles could block the column.
# 3. Thawing of Frozen PBMC • 1) Pre-heat medium at 37° C. water bath. • 2) Rapidly thaw cells in 37° C. water bath. • 3) Add the pre-warmed medium into 15 mL tube. Transfer cells to the tube. • 4) 300×g centrifuge for 8 min. (centrifuge increase 0, decrease 0). • 5) Wash the PBMC using Rinsing buffer. • 6) Centrifuge PBMC at 300×g for 8 min, wash it twice (centrifuge increase 9, decrease 1). • 7) Resuspend the cells with Pan T cells isolation buffer and count cells number. 4. Pan T Cells Isolation: Cell Staining with Microbead Cocktail • 1) Prepare cells and determine cell number. Filter cells by 70 μm cell strainer. • 2) Resuspend cell pellet in 40 μL of buffer per 10^7 total cells. • 3) Add 10 μL of Pan T Cell Biotin-Antibody Cocktail per 10^7 total cells. • 4) Mix well and incubate for 10 minutes in the refrigerator (ice). • 5) Add 30 μL of buffer per 10^7 total cells. • 6) Add 20 μL of Pan T Cell MicroBead Cocktail per 10^7 total cells. • 7) Mix well and incubate for 15 minutes in the refrigerator (ice). • 8) Proceed to subsequent magnetic cell separation. • Note: a. Work fast, keep cells cold, and use pre-cooled solutions (2-8° C.). b. Volumes for magnetic labeling given are for up to 10′ total cells. When working with fewer cells, use the same volumes as indicated. c. When working with higher cell numbers, scale up all reagent volumes and total volumes accordingly. d. For optimal performance it is important to obtain a single-cell suspension before magnetic labeling. Subsequent Manual Cell Separation: • 1) Place LS Column in the magnetic field of a suitable MACS Separator. For details refer to the respective MACS Column data sheet. • 2) Prepare column by rinsing with 3 mL of buffer. • 3) Apply cell suspension onto the column. Collect flow-through, which represents the enriched T cells. • 4) Wash column with 5 mL of buffer. […]
SMILES,"EC50 (Homo sapiens, T-cell)",EC50,"EC (2-fold response) (Homo sapiens, T-cell)","maximal fold induction (Homo sapiens, T-cell)",IL-2 Max Fold Response,EC2x (nM)
"COc1cc2c(cc1Nc1ncc(Cl)c(N3C[C@](C)(C(=O)O)c4ccccc43)n1)CN(C)CC2 (single isomer, unassigned) [Example 118]",> 1000 nM,,,< 2,,
"COc1cc2c(cc1Nc1ncc(Cl)c(N3CC(C)(CC(=O)O)c4ccccc43)n1)CN(C)CC2 (single isomer, unassigned) [Example 147]",,500 to 1000 nM,,< 2,,
"COc1cc2c(cc1Nc1ncc(Cl)c(N3CC(C)(CC(=O)O)c4ccccc43)n1)CN(C)CC2 (single isomer, unassigned) [Example 148]",,≤ 100 nM,≤ 0.1 µM,,>2,
"COc1cc2c(cc1Nc1ncc(Cl)c(N3CC(C)(CC(=O)O)c4ccc(F)cc43)n1)CN(C)CC2 (single isomer, unassigned) [Example 153]",,100 to 500 nM,,,>2,"+++ (“+++”, for higher values than “++++” but less than or equal to 500 nM)"
"COc1cc2c(cc1Nc1ncc(Cl)c(-n3ccc4ccccc43)n1)CN(C)CC2 [Example 2, N-(5-chloro-4-(1H-indol-1-yl)pyrimidin-2-yl)-6-methoxy-2-methyl-1,2,3,4-tetrahydroisoquinolin-7-amine]",,,,< 2,,
COc1cc2c(cc1Nc1ncc(Cl)c(-n3cc(C(=O)N(C)C)c4ccccc43)n1)CN(C)CC2 [Example 8],,,,< 2,,
"COc1cc2c(cc1Nc1ncc(C(F)(F)F)c(-n3ccc4ccccc43)n1)CN(C)CC2 [Example 10, N-(4-(1H-indol-1-yl)-5-(trifluoromethyl)pyrimidin-2-yl)-6-methoxy-2-methyl-1,2,3,4-tetrahydroisoquinolin-7-amine]",,,,< 2,,
"COc1cc2c(cc1Nc1ncc(Cl)c(N3CCc4cc(Cl)ccc43)n1)CN(C)CC2 [Example 13, N-(5-chloro-4-(5-chloroindolin-1-yl)pyrimidin-2-yl)-6-methoxy-2-methyl-1,2,3,4-tetrahydroisoquinolin-7-amine]",> 1000 nM,,,< 2,,
"CN1CCc2ccc(Nc3ncc(Cl)c(N4CCc5ccccc54)n3)cc2C1 [Example 14, N-(5-Chloro-4-(indolin-1-yl)pyrimidin-2-yl)-2-methyl-1,2,3,4-tetrahydroisoquinolin-7-amine]",,,,< 2,,
"CN1CCc2cc(Cl)c(Nc3ncc(Cl)c(N4CCc5ccccc54)n3)cc2C1 [Example 15, 6-Chloro-N-(5-chloro-4-(indolin-1-yl)pyrimidin-2-yl)-2-methyl-1,2,3,4-tetrahydroisoquinolin-7-amine]",> 1000 nM,,,> 2,,"+ (“+”, for greater than 1 μM)"
"COc1cc2c(cc1Nc1ncc(Cl)c(N3CC(S(C)(=O)=O)c4ccccc43)n1)CN(C)CC2 (stereo not drawn) [Example 81, N-(5-chloro-4-(3-(methylsulfonyl)indolin-1-yl)pyrimidin-2-yl)-6-methoxy-2-methyl-1,2,3,4-tetrahydroisoquinolin-7-amine]",500 to 1000 nM,,0.1 to 0.5 µM,> 2,,
"COc1cc2c(cc1Nc1ncc(Cl)c(N3CC4(CC4)c4ccccc43)n1)CN(C)CC2 [Example 84, N-(5-chloro-4-(spiro[cyclopropane-1,3′-indolin]-1′-yl)pyrimidin-2-yl)-6-methoxy-2-methyl-1,2,3,4-tetrahydroisoquinolin-7-amine]",500 to 1000 nM,,,< 2,,
COc1cc2c(cc1Nc1ncc(Cl)c(N3CC(CO)c4ccccc43)n1)CN(C)CC2 (stereo not drawn) [Example 87],100 to 500 nM,,,< 2,,
COc1cc2c(cc1Nc1ncc(Cl)c(N3CC(P(C)(C)=O)c4ccccc43)n1)CN(C)CC2 (stereo not drawn) [Example 88],500 to 1000 nM,,,< 2,,
"COc1cc2c(cc1Nc1ncc(Cl)c(N3CCc4cc(C(F)F)ccc43)n1)CN(C)CC2 [Example 90, N-(5-chloro-4-(5-(difluoromethyl)indolin-1-yl)pyrimidin-2-yl)-6-methoxy-2-methyl-1,2,3,4-tetrahydroisoquinolin-7-amine]",> 1000 nM,,,< 2,,

# Further lines, with some results ahead:
"EC50 (Homo sapiens, T-cell)",EC50,SMILES,"EC (2-fold response) (Homo sapiens, T-cell)","maximal fold induction (Homo sapiens, T-cell)",IL-2 Max Fold Response,EC2x (nM)
100 to 500 nM,,"COc1cc2c(cc1Nc1ncc(Cl)c(N3CC(C(=O)O)c4ccccc43)n1)CN(C)CC2 (single isomer, unassigned) [Example 96]",0.1 to 0.5 µM,> 2,,
≤ 100 nM,,"COc1cc2c(cc1Nc1ncc(Cl)c(N3C[C@@](C)(C(=O)O)c4ccccc43)n1)CN(C)CC2 (single isomer, unassigned) [Example 119]",≤ 0.1 µM,> 2,,
≤ 100 nM,,"COc1cc2c(cc1Nc1ncc(Cl)c(N3CC(C)(CC(=O)O)c4ccc(F)cc43)n1)CN(C)CC2 (single isomer, unassigned) [Example 152]",≤ 0.1 µM,> 2,,
100 to 500 nM,,"COc1cc2c(cc1Nc1ncc(Cl)c(N3CCc4ccccc43)n1)CN(C)CC2 [Example 4, N-(5-Chloro-4-(indolin-1-yl)pyrimidin-2-yl)-6-methoxy-2-methyl-1,2,3,4-tetrahydroisoquinolin-7-amine]",0.1 to 0.5 µM,> 2,,
100 to 500 nM,,"COc1cc2c(cc1Nc1ncc(Cl)c(-n3cnc4ccccc43)n1)CN(C)CC2 [Example 9, N-(4-(1H-benzo[d]imidazol-1-yl)-5-chloropyrimidin-2-yl)-6-methoxy-2-methyl-1,2,3,4-tetrahydroisoquinolin-7-amine]",,> 2,,"++ (“++”, for higher values than “+++” but less than or equal to 1 μM)"
100 to 500 nM,,"COc1cc2c(cc1Nc1ncc(Cl)c(N3CCc4ncccc43)n1)CN(C)CC2 [Example 16, N-(5-chloro-4-(2,3-dihydro-1H-pyrrolo[3,2-b]pyridin-1-yl)pyrimidin-2-yl)-6-methoxy-2-methyl-1,2,3,4-tetrahydroisoquinolin-7-amine]",,< 2,,
100 to 500 nM,,"COc1cc2c(cc1Nc1ncc(Cl)c(N3CCc4ccc(Cl)cc43)n1)CN(C)CC2 [Example 18, N-(5-chloro-4-(6-chloroindolin-1-yl)pyrimidin-2-yl)-6-methoxy-2-methyl-1,2,3,4-tetrahydroisoquinolin-7-amine]",,< 2,,
100 to 500 nM,,"COc1cc2c(cc1Nc1ncc(Cl)c(-n3cc(S(N)(=O)=O)c4ccccc43)n1)CN(C)CC2 [Example 83, 1-(5-Chloro-2-((6-methoxy-2-methyl-1,2,3,4-tetrahydroisoquinolin-7-yl)amino)pyrimidin-4-yl)-1H-indole-3-sulfonamide]",,< 2,,
100 to 500 nM,,COc1cc2c(cc1Nc1ncc(Cl)c(N3CCc4cc(P(C)(C)=O)ccc43)n1)CN(C)CC2 [Example 86],,> 2,,"+ (“+”, for greater than 1 μM)"
